Assay results: ChEMBL document CHEMBL6120977, “Structure-Affinity-Pharmacokinetics Relationships of Novel 18F-Labeled 1,4-Diazepane Derivatives for Orexin 1 Receptor Imaging” (J Med Chem, 2024)

Assays:
[1] = target: T1, Orexin/Hypocretin receptor type 1 (Homo sapiens, UniProt O43613); assay: Displacement of [125I]Orexin A from recombinant human OX1R expressed in CHO-S cells by radioligand competition binding assay; type: cell-based
T1 sequence (O43613 whole entry): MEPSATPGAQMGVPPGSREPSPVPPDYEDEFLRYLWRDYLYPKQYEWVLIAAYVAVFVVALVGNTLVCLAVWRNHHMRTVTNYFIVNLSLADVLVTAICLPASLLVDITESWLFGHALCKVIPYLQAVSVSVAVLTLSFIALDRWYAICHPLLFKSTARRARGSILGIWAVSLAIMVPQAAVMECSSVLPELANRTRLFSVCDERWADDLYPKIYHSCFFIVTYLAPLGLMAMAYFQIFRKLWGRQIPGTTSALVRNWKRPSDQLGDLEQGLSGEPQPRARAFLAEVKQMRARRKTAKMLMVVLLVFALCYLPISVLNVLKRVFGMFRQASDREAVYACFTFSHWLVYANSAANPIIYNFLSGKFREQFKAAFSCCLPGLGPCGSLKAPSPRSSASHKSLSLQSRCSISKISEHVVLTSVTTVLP

Orexin receptor type 2 [2] = target: T2, Orexin receptor type 2 (Homo sapiens, UniProt O43614); assay: Displacement of [125I]Orexin A from recombinant human OX2R expressed in CHO-S cells by radioligand competition binding assay; type: cell-based
T2 sequence (O43614 whole entry): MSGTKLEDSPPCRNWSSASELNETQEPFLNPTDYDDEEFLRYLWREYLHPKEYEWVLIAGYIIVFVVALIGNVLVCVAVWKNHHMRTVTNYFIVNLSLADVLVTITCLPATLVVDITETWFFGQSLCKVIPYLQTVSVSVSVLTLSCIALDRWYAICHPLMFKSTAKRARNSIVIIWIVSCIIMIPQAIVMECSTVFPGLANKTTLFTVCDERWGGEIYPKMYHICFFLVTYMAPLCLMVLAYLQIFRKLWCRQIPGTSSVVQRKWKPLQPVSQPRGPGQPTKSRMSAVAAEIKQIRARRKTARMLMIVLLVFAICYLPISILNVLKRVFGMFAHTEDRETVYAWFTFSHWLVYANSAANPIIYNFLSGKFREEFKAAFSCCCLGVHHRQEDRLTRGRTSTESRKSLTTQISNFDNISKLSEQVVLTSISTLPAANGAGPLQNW

Homo sapiens [3] = organism: Homo sapiens; assay: Selectivity ratio of IC50 for recombinant human OX2R expressed in CHO-S cells to IC50 for recombinant human OX1R expressed in CHO-S cells; type: cell-based; conditions: tested as the 11C-labelled form
[4] = target: T1, Orexin/Hypocretin receptor type 1; assay: Displacement of […]5IBOM from OX1R (unknown origin) transfected in CHO cells assessed as inhibition constant incubated for 1.5 hrs by automated gamma-counter analysis; type: cell-based
[5] = Selectivity ratio of Ki for OX2R (unknown origin) transfected in CHO cells to Ki for OX1R (unknown origin) transfected in CHO cells; type: cell-based
Homo sapiens [6] = organism: Homo sapiens; assay: Selectivity ratio of IC50 for recombinant human OX2R extracted from HEK293T cell membrane to IC50 for recombinant human OX1R extracted from HEK293T cell membrane
Orexin receptor type 2 [7] = target: T2, Orexin receptor type 2; assay: Displacement of […]5IBOM from OX2R (unknown origin) transfected in CHO cells assessed as inhibition constant incubated for 1.5 hrs by automated gamma-counter analysis; type: cell-based
Orexin receptor type 2 [8] = target: T2, Orexin receptor type 2; assay: Displacement of [3H]EMPA from recombinant human OX2R extracted from HEK293T membrane by radioligand binding assay; type: cell membranes
[9] = target: T1, Orexin/Hypocretin receptor type 1; assay: Displacement of [3H]SB-674042 from recombinant human OX1R extracted from HEK293T membrane by radioligand binding assay; type: cell membranes

SMILES: COc1ccnc(N2CCC3(CCN(Cc4cn([11CH3])c5ccccc45)C(=O)C3)CC2)n1
- IC50 [1]: 253 nM
- IC50 (Orexin receptor type 2 [2]): 1410 nM

SMILES: COc1ccnc(N2CCC3(CCN(Cc4cn(C)c5ccccc45)C(=O)C3)CC2)n1
- Ratio IC50 (Homo sapiens [3]): 5.6

SMILES: Cc1ccc(-n2nccn2)c(C(=O)N2CCCN(c3nc4cc(Cl)ccc4o3)C[C@@H]2C)c1
- Ki [4]: 1.12 nM
- Ratio Ki [5]: 8.71
- Ratio IC50 (Homo sapiens [6]): 2.4
- Ki (Orexin receptor type 2 [7]): 9.79 nM
- IC50 (Orexin receptor type 2 [8]): 2 nM
- IC50 [9]: 0.83 nM
